# Measurements as given in ChEMBL document CHEMBL1145170, “Development of a three-dimensional model for the N-methyl-D-aspartate NR2A subunit” (J Med Chem, 2005).
# Tests used:
# [1] = target: T1, Glutamate receptor ionotropic, NMDA 2A (Rattus norvegicus, UniProt Q00959); test: Inhibition of [3H]CPP binding to rat N-methyl-D-aspartic acid receptor 2A
# [2] = target: T1, Glutamate receptor ionotropic, NMDA 2A; test: Inhibition of [3H]Glu binding to rat N-methyl-D-aspartic acid receptor 2A
# T1 sequence (Q00959 whole entry): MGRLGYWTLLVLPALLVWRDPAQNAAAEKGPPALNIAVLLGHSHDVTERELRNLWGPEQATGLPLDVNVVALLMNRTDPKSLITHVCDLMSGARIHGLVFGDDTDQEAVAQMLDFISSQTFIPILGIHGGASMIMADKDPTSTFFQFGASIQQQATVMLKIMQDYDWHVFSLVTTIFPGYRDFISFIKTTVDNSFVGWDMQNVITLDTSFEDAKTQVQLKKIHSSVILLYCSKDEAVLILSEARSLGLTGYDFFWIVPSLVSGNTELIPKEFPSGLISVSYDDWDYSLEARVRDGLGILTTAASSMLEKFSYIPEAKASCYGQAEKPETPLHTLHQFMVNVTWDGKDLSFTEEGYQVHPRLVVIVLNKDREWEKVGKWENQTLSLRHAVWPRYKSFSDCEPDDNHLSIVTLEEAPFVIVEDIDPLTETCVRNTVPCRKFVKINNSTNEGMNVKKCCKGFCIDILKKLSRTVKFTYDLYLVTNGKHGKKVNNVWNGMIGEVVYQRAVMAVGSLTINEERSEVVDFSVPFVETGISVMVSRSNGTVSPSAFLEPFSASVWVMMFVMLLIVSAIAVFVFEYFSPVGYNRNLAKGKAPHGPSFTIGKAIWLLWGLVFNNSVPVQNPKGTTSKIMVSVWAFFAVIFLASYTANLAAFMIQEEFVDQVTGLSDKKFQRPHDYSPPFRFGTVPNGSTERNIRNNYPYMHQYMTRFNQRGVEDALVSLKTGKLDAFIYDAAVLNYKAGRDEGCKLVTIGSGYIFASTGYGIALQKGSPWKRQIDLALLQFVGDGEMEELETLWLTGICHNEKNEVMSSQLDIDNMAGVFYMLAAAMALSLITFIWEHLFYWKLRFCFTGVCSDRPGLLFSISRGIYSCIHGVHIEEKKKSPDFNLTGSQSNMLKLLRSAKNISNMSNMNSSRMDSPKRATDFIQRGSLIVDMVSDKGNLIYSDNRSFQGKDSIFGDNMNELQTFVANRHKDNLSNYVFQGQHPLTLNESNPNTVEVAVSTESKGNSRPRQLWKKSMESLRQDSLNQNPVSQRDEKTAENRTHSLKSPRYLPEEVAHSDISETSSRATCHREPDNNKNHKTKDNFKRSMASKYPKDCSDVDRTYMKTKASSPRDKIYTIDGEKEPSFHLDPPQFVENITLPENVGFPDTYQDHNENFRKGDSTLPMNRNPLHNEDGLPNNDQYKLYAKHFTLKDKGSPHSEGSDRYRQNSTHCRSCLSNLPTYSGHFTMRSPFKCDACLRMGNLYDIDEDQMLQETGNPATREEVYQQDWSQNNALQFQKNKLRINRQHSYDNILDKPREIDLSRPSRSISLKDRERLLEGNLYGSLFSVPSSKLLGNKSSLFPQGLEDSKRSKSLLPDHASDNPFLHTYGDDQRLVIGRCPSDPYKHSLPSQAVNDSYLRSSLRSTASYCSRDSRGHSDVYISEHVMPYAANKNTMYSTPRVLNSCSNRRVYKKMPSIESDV
Compound,IC50 [1] [nM],IC50 [2] [nM]
N[C@@H](CCCP(=O)(O)O)C(=O)O,290,1500
"O=C(O)[C@@H]1C[C@H](CP(=O)(O)O)CCN1 (single isomer, unassigned) [SELFOTEL]",95,840
N[C@H](CC(=O)CP(=O)(O)O)C(=O)O,110,–
CCC/C(=C\[C@@H](N)C(=O)O)CP(=O)(O)O,–,230
C/C(=C\[C@@H](N)C(=O)O)CP(=O)(O)O [CGP-37849],35,220
